Patent publication EP0514268A1, “Substituted amino acid azetidinyl pyridone derivatives, their preparation and use as medicines” (LABORATORIOS DEL DR. ESTEVE, S.A., priority 1991, dated 1992)
In brackets after ≈: the same amount, converted by molar mass.

Legend:
[1] = system: Ent. aerogenes ATCC 15038; experiment: Antimicrobial activity, agar dilution; type: cell-based, Enterobacter aerogenes; settings: Klebsiella aerogenes, ATCC15038, 20 h, Agar Dextrose dilutions, 37°C, 20 heures, read-out: Activité pharmacologique antimicrobienne (concentrations)
From the text: (§1) L'activité pharmacologique antimicrobienne de ces composés a été étudiée selon les références exposées ci-dessous.
(§2) Activité pharmacologique antimicrobienne : G.L. Daquet et Y.A. Chabbect, techniques en bactériologie, Vol. 3, Flammarion Médecine-Sciences, Paris 1972, et W.B. Hugo et A.D. Rusell, Pharmaceutical Microbiology, Blackwell Scientific Publications, London, 1977.
(§3) Milieu de culture et solvant : Agar d'antibiotiques n° 1 (Oxoid CM 327) Bouillon de triptone-soja (Oxoid CM 129) Solution Physiologique Ringer 1/4 (Oxoid BR 52) Agar Dextrose (BBL 11165)
(§4) Microorganismes : "Bacillus subtilis" ATCC 6633 "Citrobacter freundii" ATCC 112606 "Enterobacter aerogenes" ATCC 15038 "Enterobacter cloacae" ATCC 23355 "Bacillus cereus" ATCC 1178 "Escherichia coli" ATCC 10799 "Escherichia coli" ATCC 23559 "Klebsiella pneumoniae" ATCC 10031 "Proteus vulgaris" ATCC 8427 "Morg. morganii" ATCC 8019 "Pseudomonas aeruginosa" ATCC 9721 "Pseudomonas aeruginosa" ATCC 10145 "Salmonella typhimurium" ATCC 14028 "Salmonella typhimurium" ATCC 6539 "Serratia marcescens" ATCC 13880 "Shigella flexnerii" ATCC 12022 "Staphylococcusepidermis" ATCC 155-1 "Staphylococcus aureus" ATCC 25178 "Streptococcus faecalis" ATCC 10541.
(§5) Chacun des microorganismes est ensemencé par strie dans des tubes d'Agar d'antibiotiques n° 1, et mis en incubation pendant 20 heures à 37°C. Ensuite, on prend une anse de culture, on ensemence dans un bouillon de Triptone-soja et on incube pendant 20 heures à 37°C. On dilue à 1/4 la culture obtenue avec une solution physiologique Ringer, de façon à obtenir une suspension normalisée de […] pour chaque organisme.
(§6) A partir d'une solution de 100 µg/ml, chaque produit est dilué dans l'Agar Dextrose (préalablement fondu et maintenu à 50°C) par dilutions successives de façon à obtenir les concentrations suivantes : 64-32-16-8-4-2-1-0,5-0,25-0,125 µg de dérivé/ml du milieu.
(§7) Postérieurement, chaque concentration de chaque produit est répartie dans des boîtes de Petri de 10 cm de diamètre, à raison de 10 ml de milieu par boîte et autant de boîtes que de microorganismes à tester.
(§8) Une fois le milieu refroidi, les boîtes sont ensemencées avec les inoculations à raison de 0,4 ml d'inoculation par boîte. On les étend avec une anse de Driglasky et on recueille le surnageant. Les boîtes ensemencées sont incubées à 37°C pendant 20 heures.
(§9) Les résultats obtenus sont décrits dans les tableaux suivants. Les concentrations sont données en µg/ml.

Ent. cloacae ATCC 23355 = experiment: Antimicrobial activity, agar dilution; type: cell-based, Enterobacter cloacae; settings: Enterobacter cloacae, ATCC23355, 20 h, Agar Dextrose dilutions, 37°C, 20 heures, read-out: Activité pharmacologique antimicrobienne (concentrations)
From the text: as §1, §2, §3, §4, §5, §6, §7, §8, §9

Staph. aureus ATCC 25178 = experiment: Antimicrobial activity, agar dilution; type: cell-based, Staphylococcus aureus; settings: Staphylococcus aureus, ATCC25178, 20 h, Agar Dextrose dilutions, 37°C, 20 heures, read-out: Activité pharmacologique antimicrobienne (concentrations)
From the text: as §1, §2, §3, §4, §5, §6, §7, §8, §9

[2] = system: Citr. freundii ATCC 11606; experiment: Antimicrobial activity, agar dilution; type: cell-based, Citrobacter freundii; settings: Citrobacter freundii, ATCC11606, 20 h, Agar Dextrose dilutions, 37°C, 20 heures, read-out: Activité pharmacologique antimicrobienne (concentrations)
From the text: as §1, §2, §3, §4, §5, §6, §7, §8, §9

[3] = system: Strep. faecalis ATCC 10541; experiment: Antimicrobial activity, agar dilution; type: cell-based, Streptococcus faecalis; settings: Enterococcus faecalis, ATCC10541, 20 h, Agar Dextrose dilutions, 37°C, 20 heures, read-out: Activité pharmacologique antimicrobienne (concentrations)
From the text: as §1, §2, §3, §4, §5, §6, §7, §8, §9

[4] = system: Serr. marcescens ATCC 13880; experiment: Antimicrobial activity, agar dilution; type: cell-based, Serratia marcescens; settings: Serratia marcescens, ATCC13880, 20 h, Agar Dextrose dilutions, 37°C, 20 heures, read-out: Activité pharmacologique antimicrobienne (concentrations)
From the text: as §1, §2, §3, §4, §5, §6, §7, §8, §9

[5] = system: Sal. typhimurium ATCC 14028; experiment: Antimicrobial activity, agar dilution; type: cell-based, Salmonella typhimurium; settings: Salmonella enterica, 20 h, Agar Dextrose dilutions, 37°C, 20 heures, read-out: Activité pharmacologique antimicrobienne (concentrations)
From the text: as §1, §2, §3, §4, §5, §6, §7, §8, §9

[6] = system: Staph. epidermidis ATCC 155-1; experiment: Antimicrobial activity, agar dilution; type: cell-based; settings: Staphylococcus epidermidis, ATCC155, 20 h, Agar Dextrose dilutions, 37°C, 20 heures, read-out: Activité pharmacologique antimicrobienne (concentrations)
From the text: as §1, §2, §3, §4, §5, §6, §7, §8, §9

[7] = system: Bacillus subtilis ATCC 6633; experiment: Antimicrobial activity, agar dilution; type: cell-based; settings: ATCC6633, 20 h, Agar Dextrose dilutions, 37°C, 20 heures, read-out: Activité pharmacologique antimicrobienne (concentrations)
From the text: as §1, §2, §3, §4, §5, §6, §7, §8, §9

[8] = system: Ps. aeruginosa ATCC 10145; experiment: Antimicrobial activity, agar dilution; type: cell-based; settings: Pseudomonas aeruginosa, ATCC10145, 20 h, Agar Dextrose dilutions, 37°C, 20 heures, read-out: Activité pharmacologique antimicrobienne (concentrations)
From the text: as §1, §2, §3, §4, §5, §6, §7, §8, §9

Morg. morganii ATCC 8019 = experiment: Antimicrobial activity, agar dilution; type: cell-based; settings: Morganella morganii, ATCC8019, 20 h, Agar Dextrose dilutions, 37°C, 20 heures, read-out: Activité pharmacologique antimicrobienne (concentrations)
From the text: as §1, §2, §3, §4, §5, §6, §7, §8, §9

[9] = system: Proteus vulgaris ATCC 8427; experiment: Antimicrobial activity, agar dilution; type: cell-based; settings: Proteus vulgaris, ATCC8427, 20 h, Agar Dextrose dilutions, 37°C, 20 heures, read-out: Activité pharmacologique antimicrobienne (concentrations)
From the text: as §1, §2, §3, §4, §5, §6, §7, §8, §9

[10] = system: Escherichia coli ATCC 23559; experiment: Antimicrobial activity, agar dilution; type: cell-based; settings: Escherichia coli, ATCC23559, 20 h, Agar Dextrose dilutions, 37°C, 20 heures, read-out: Activité pharmacologique antimicrobienne (concentrations)
From the text: as §1, §2, §3, §4, §5, §6, §7, §8, §9

[11] = system: Bacillus cereus ATCC 11778; experiment: Antimicrobial activity, agar dilution; type: cell-based; settings: Bacillus cereus, ATCC11778, 20 h, Agar Dextrose dilutions, 37°C, 20 heures, read-out: Activité pharmacologique antimicrobienne (concentrations)
From the text: as §1, §2, §3, §4, §5, §6, §7, §8, §9

Ps. aeruginosa ATCC 9721 = experiment: Antimicrobial activity, agar dilution; type: cell-based; settings: Pseudomonas aeruginosa, ATCC9721, 20 h, Agar Dextrose dilutions, 37°C, 20 heures, read-out: Activité pharmacologique antimicrobienne (concentrations)
From the text: as §1, §2, §3, §4, §5, §6, §7, §8, §9

[12] = system: Escherichia coli ATCC 10799; experiment: Antimicrobial activity, agar dilution; type: cell-based; settings: Escherichia coli, ATCC10799, 20 h, Agar Dextrose dilutions, 37°C, 20 heures, read-out: Activité pharmacologique antimicrobienne (concentrations)
From the text: as §1, §2, §3, §4, §5, §6, §7, §8, §9

Sal. typhi ATCC 6539 = experiment: Antimicrobial activity, agar dilution; type: cell-based; settings: Salmonella enterica, 20 h, read-out: Activité pharmacologique antimicrobienne (concentrations)
From the text: as §1, §2, §3, §4, §5, §6, §7, §8, §9

[13] = system: Shigella flexnerii ATCC 12022; experiment: Antimicrobial activity, agar dilution; type: cell-based; settings: ATCC12022, 20 h, Agar Dextrose dilutions, 37°C, 20 heures, read-out: Activité pharmacologique antimicrobienne (concentrations)
From the text: as §1, §2, §3, §4, §5, §6, §7, §8, §9

[14] = system: Kleb. pneumoniae ATCC 10031; experiment: Antimicrobial activity, agar dilution; type: cell-based, Klebsiella pneumoniae; settings: Klebsiella pneumoniae, ATCC10031, 20 h, Agar Dextrose dilutions, 37°C, 20 heures, read-out: Activité pharmacologique antimicrobienne (concentrations)
From the text: as §1, §2, §3, §4, §5, §6, §7, §8, §9

[15] = Solubility in water and at pH 7.4; type: physicochemical
From the text: Un grand nombre des composés de l'invention manifestent une augmentation de la solubilité dans l'eau ainsi que de la solubilité à pH 7,4 lorsqu'on compare avec les composés de référence. L'augmentation de solubilité au pH physiologique peut favoriser l'absorption du produit et la solubilité élevée dans l'eau permet l'administration du composé par voie parentérale.

Question: Which MIC [1] does the source give for `CCn1cc(C(=O)O)c(=O)c2cnc(N3CCNCC3)nc21` [Acide pipémidique, reference compound] here?
Answer: 32 µg/mL (≈ 105 µM)

Question: And the MIC (Ent. cloacae ATCC 23355)?
Answer: 8 µg/mL (≈ 26.4 µM)

Question: What about the MIC (Staph. aureus ATCC 25178) of the same compound?
Answer: 64 µg/mL (≈ 211 µM)

Question: And the MIC [2]?
Answer: 4 µg/mL (≈ 13.2 µM)

Question: And the MIC [3]?
Answer: > 64 µg/mL

Question: What about the MIC [4] of the same compound?
Answer: 16 µg/mL (≈ 52.7 µM)

Question: And the MIC [5]?
Answer: 8 µg/mL (≈ 26.4 µM)

Question: What about the MIC [6] of the same compound?
Answer: 64 µg/mL (≈ 211 µM)

Question: And the MIC [7]?
Answer: 8 µg/mL (≈ 26.4 µM)

Question: And the MIC [8]?
Answer: 32 µg/mL (≈ 105 µM)

Question: And the MIC (Morg. morganii ATCC 8019)?
Answer: 8 µg/mL (≈ 26.4 µM)

Question: What about the MIC [9] of the same compound?
Answer: 16 µg/mL (≈ 52.7 µM)

Question: And the MIC [10]?
Answer: 2 µg/mL (≈ 6.59 µM)

Question: What about the MIC [11] of the same compound?
Answer: 16 µg/mL (≈ 52.7 µM)

Question: And the MIC (Ps. aeruginosa ATCC 9721)?
Answer: 32 µg/mL (≈ 105 µM)

Question: What about the MIC [12] of the same compound?
Answer: 16 µg/mL (≈ 52.7 µM)

Question: What about the MIC (Sal. typhi ATCC 6539) of the same compound?
Answer: 4 µg/mL (≈ 13.2 µM)

Question: What about the MIC [13] of the same compound?
Answer: 4 µg/mL (≈ 13.2 µM)

Question: And the MIC [14]?
Answer: 2 µg/mL (≈ 6.59 µM)

Question: With `C[C@H]1[C@H](N)CN1c1nc2c(cc1F)c(=O)c(C(=O)O)cn2C1CC1` [Exemple 1a, acide 7-[(2S,3R)-2-méthyl-3-amino-1-azétidinyl]-1-cyclopropyl-6-fluoro-1,4-dihydro-4-oxo-1,8-naphtyridine-3-carboxylique, reference compound] as the compound, how does the solubility ([15]; pH 7) read?
Answer: 16.5 µg/mL (≈ 49.6 µM)

Question: What about the solubility ([15]; water) of the same compound?
Answer: 23 µg/mL (≈ 69.2 µM)

Question: With `NC1CN(c2nc3c(cc2F)c(=O)c(C(=O)O)cn3-c2ccc(F)cc2F)C1` [Exemple 1b, acide 7-(3-amino-1-azétidinyl)-1-(2,4-difluorophényl)-6-fluoro-1,4-dihydro-4-oxo-1,8-naphtyridine-3-carboxylique, reference compound] as the compound, how does the solubility ([15]; pH 7) read?
Answer: 3.7 µg/mL (≈ 9.48 µM)

Question: And the solubility ([15]; water)?
Answer: 3 µg/mL (≈ 7.69 µM)
